Test results taken from US8226972B2, “Vaginal delivery of drugs” (FemmePharma Holding Company, Inc., priority 2001, dated 2012).
Where a name gives a salt, the structure may show the parent alone. Read-outs that look alike come from different tables or passages of the source.

How the values were obtained:
[1] = system: bladder; assay: Example 1: bladder pressure response to intra-arterial Ach after vaginal oxybutynin gel; type: in vivo, rabbit; details: for response of the bladder pressure to Ach: high dose (0.5 g Oxybutynin/g gel, 3 g vaginal)
Description: (§1) 16 mature female New Zealand white rabbits were separated into two groups of eight. The rabbits in Group 1 received a high dose oxybutynin formulations; and the rabbits in Group 2 received a low dose oxybutynin formulation. For the high dose, 3 grams (g) of oxybutynin HCl were suspended in 6 g of gel (yielding a concentration of 0.5 g Oxybutynin/g gel) and 3 g of the formulation were placed in the vagina. For the low dose, 0.3 g of oxybutynin HCl were suspended in 6 g of gel (yielding a concentration of 0.05 g Oxybutynin/g gel), and 3 g of the formulation were placed in the vagina.
(§2) Each rabbit was sedated with an intramuscular injection of ketamine-xylazine ((25 mg ketamine+6 mg xylazine)/kg rabbit) and anesthesia was maintained by isoflurane. After anesthesia, the right external carotid artery was cannulated for blood pressure monitoring. A polyethylene catheter (Intramedic) with an outer diameter of 0.043 inches was inserted through the rabbit's right femoral artery until it reached the lower abdominal aorta (approximately 0.5 cm above the bifurcation of the aorta). A heparizined saline (30 iu/mL) filled polyethylene catheter was used for intra-arterial administration of drugs. To facilitate the delivery of the maximum amount of drugs to the urinary bladder, the rabbit's left femoral artery was ligated.
(§3) The bladder was exposed through a midline incision, and the bladder dome was catheterized with an 8 F catheter for both the monitoring of bladder pressure and for cystometry. The bladder neck-urethra was ligated to prevent micturition or leakage through the urethra. The catheter was connected to an infusion pump (Harvard Apparatus) and a pressure transducer.
(§4) Acetylcholine (Ach), a chemical that causes the bladder muscle (detrusor) to squeeze or contract, was injected through the intra-arterial polyethylene catheter in a volume of 0.31-0.39 mL (i.e., 0.1 mL/kg of rabbit), followed by 0.2 mL of heparinized saline. Change of intravesical pressure following the administration of Ach (10^−6 mol/kg) was monitored by the pressure transducer and recorded on a Grass model 7D polygraph. A 10-minute interval passed between Ach administrations, and three flushes of normal saline, in an amount of 0.1 ml/kg of rabbit, were administered. Three responses to Ach were performed at 10-minute intervals to ensure consistent responses.
(§5) After the third Ach administration, the application of the oxybutynin containing gel was administered to the vagina and the responses to Ach were determined at 15-minute intervals for 2 hours. When the response to Ach was reduced, then the time period was extended to 4 hours. At the end of the experiment, a second cystometric curve was generated.

[2] = system: blood pressure; assay: Example 1: blood pressure response to intra-arterial Ach after vaginal oxybutynin gel; type: in vivo, rabbit
Description: as §1, §2, §4, §5

[3] = system: bladder; assay: Example 1: cystometry (bladder capacity, Bladder Compliance); type: in vivo, rabbit; details: high dose (0.5 g/g gel) vaginal
Description: as §1, §3
Then, the rabbit was taken off of the isoflurane and anesthesia was maintained by ketamine-xylazine so that micturition reflexes could be observed during cystometry. […] Bladder capacity and Bladder Compliance were determined. […]
(§6) After the third Ach administration, the application of the oxybutynin containing gel was administered to the vagina and the responses to Ach were determined at 15-minute intervals for 2 hours. […]

[4] = system: bladder; assay: Example 2: cystometry at 1.42 mL/minute after vaginal oxybutynin; type: in vivo, rabbit
Description: as §1, §3
Then, the rabbit was taken off of the isoflurane and anesthesia was maintained by ketamine-xylazine so that micturition reflexes could be observed during cystometry. After 15 minutes, the infusion pump was turned on and at an infusion rate of 1.0 mL/minute, a cystometric curve was generated. The volume at which a micturition reflex was observed was considered to be the functional capacity of the bladder. Bladder capacity and Bladder Compliance were determined. The bladder was then filled to 20 mL.
as §5
(§7) The protocol described in Example 1 was followed in this experiment, with the following changes. The infusion pump was turned on and, at an infusion rate of 1.42 mL/minute, a cystometric curve was generated.

[5] = system: bladder; assay: Example 2: bladder contractile response to intra-arterial Ach; type: in vivo, rabbit
Description: as §1, §4, §5, §7

[6] = system: blood pressure; assay: Example 2: vascular response to Ach; type: in vivo, rabbit; details: entire 4-hour period
Description: as §1
Each rabbit was sedated with an intramuscular injection of ketamine-xylazine ((25 mg ketamine+6 mg xylazine)/kg rabbit) and anesthesia was maintained by isoflurane. […]
Acetylcholine (Ach), a chemical that causes the bladder muscle (detrusor) to squeeze or contract, was injected through the intra-arterial polyethylene catheter in a volume of 0.31-0.39 mL (i.e., 0.1 mL/kg of rabbit), followed by 0.2 mL of heparinized saline. Change of intravesical pressure following the administration of Ach (10^−6 mol/kg) was monitored by the pressure transducer and recorded on a Grass model 7D polygraph. […]
as §6

[7] = system: bladder; assay: Example 3: cystometry after vaginal or oral oxybutynin; type: in vivo, rabbit; details: for micturition pressure: four hours after administration
Description: (§8) 30 mature female New Zealand white rabbits (˜4 kg) were separated into five groups of six rabbits each. Intra arterial administration of Ach was used as a model for hyperreflexia. The effects on intra arterial stimulated contraction were compared with effects on micturition pressure generation.
as §2, with “Central Mutual” for “cm”
as §3, with “tranducer. The right carotid artery was cannulated for monitoring blood pressure. Bladder pressure and blood pressure were recorded on a Grass model 7D Polygraph, and were simultaneously digitized using a Polyview A/D digital analytical system.” for “transducer.”
(§9) Cystometry was performed at 1.4 mL/min until a micturition contraction or a volume of 80 mL was obtained. After the first cystometry, Ach (10^−6 mol/kg) was injected through the intra-arterial polyethylene catheter in a volume of 0.1 ml/kg followed by three washes of 0.2 ml of heparinized saline. The blood pressure and bladder pressure responses were recorded and digitized.
(§10) After three consistent Ach tests, (i.e. responses within 20% of each other) the rabbits in the control group (Group 1) received a vaginal administration of 3 mL of gel (no oxybutynin); the rabbits in the high dose group (Group 2) received a vaginal administration of 1.5 g of oxybutynin suspended in 3 mL of gel; the rabbits in the intermediate dose group (Group 3) received 0.5 g of oxybutynin suspended in 3 mL of gel; the rabbits in the low dose group (Group 4) received a vaginal administration of 0.15 g of oxybutynin suspended in 3 mL of gel; and the rabbits in the oral dose group (Group 5) received 0.5 g of an oral preparation of oxybutynin dissolved in 3 mL of saline.
(§11) Ach was administered at 10 minute intervals for two hours, and then a second cystometry was performed. Ach administration continued at 10 minute intervals for a second two hour period, and then a final cystometry performed.
(§12) Statistical significance was determined using analysis of variance followed by Bonferroni test for individual differences. A p<0.05 was required for significance.

[8] = system: bladder; assay: Example 3: bladder response to intra-arterial Ach (model for hyperreflexia); type: in vivo, rabbit
Description: as §8
as §2, with “Central Mutual” for “cm”
as §3, with “tranducer. The right carotid artery was cannulated for monitoring blood pressure. Bladder pressure and blood pressure were recorded on a Grass model 7D Polygraph, and were simultaneously digitized using a Polyview A/D digital analytical system.” for “transducer.”
as §9, §10, §11, §12

[9] = system: blood pressure; assay: Example 3: vascular (blood pressure) response to Ach; type: in vivo, rabbit
Description: as §8
as §2, with “Central Mutual” for “cm”
as §3, with “tranducer. The right carotid artery was cannulated for monitoring blood pressure. Bladder pressure and blood pressure were recorded on a Grass model 7D Polygraph, and were simultaneously digitized using a Polyview A/D digital analytical system.” for “transducer.”
Cystometry was performed at 1.4 mL/min until a micturition contraction or a volume of 80 mL was obtained. […] The blood pressure and bladder pressure responses were recorded and digitized. […]
Statistical significance was determined using analysis of variance followed by Bonferroni test for individual differences. […]

[10] = system: urgency incontinence; assay: Example 4: clinical case studies, urgency incontinence / urinary frequency, urgency and nocturia; type: in vivo, human; details: person
Description: A person developed urgency incontinence two years after their laparoscopically assisted vaginal hysterectomy. […] However they experienced side effects, such as dry mouth, from the drug. Two weeks later, they started applying oxybutynin (5 mg) into the vagina at bed time, instead of Ditropan XL. […] The patient used vaginal oxybutynin (5 mg) at bed time for 6 months.
A person with a history of chronic pelvic pain and multiple surgical procedures, including pain mapping under conscious sedation and repair of occult bilateral inguinal hernias, developed urinary frequency, urgency and nocturia. Their urine analysis and urine culture were negative for signs of urinary tract infection. Their treatment began with vaginal oxybutynin (5 mg) once daily, at bed time, applied into the vagina.

[11] = system: urge incontinence; details: cited from earlier work
[12] = solid device containing oxybutynin inserted in the vagina of a rabbit (Schröder); cited from earlier work
[13] = low dose (0.05 g/g gel) vaginal, two out of three experiments
[14] = vaginally delivered high dose, overall
[15] = 5 mg into the vagina at bed time
[16] = 5 mg into the vagina twice daily
[17] = vaginal 5 mg at bed time for 6 months
[18] = oxybutynin solution delivered by catheter (Saito)

CCN(CC)CC#CCOC(=O)C(O)(c1ccccc1)C1CCCCC1 (stereo not drawn) [oxybutynin]
response of the bladder pressure to Ach ([1]; 15 minutes after administration): completely lost
response of the bladder pressure to Ach ([1]; 4 hours after administration): did not increase
reduction of the response of the bladder pressure to Ach ([1]; low dose (0.05 g/g gel) vaginal, one experiment): about 50%
effect on bladder pressure response to Ach [1, 13]: no significant effect
contractile response of the bladder to Ach [1, 14]: significantly reduced
response of the blood pressure to Ach ([2]; high dose (0.5 g/g gel) vaginal, 15 minutes after administration): clear response
response of the blood pressure to Ach ([2]; high dose (0.5 g/g gel) vaginal, 4 hours after administration): decreased
effect on blood pressure response to Ach [2, 13]: no significant effect
response of the blood pressure to Ach [2, 14]: without having any significant effects
Bladder Compliance [3]: significant decrease
bladder volume at micturition [3]: increase
Bladder Compliance ([4]; high dose vaginal): significant decrease
intravesical pressure during cystometry ([4]; high dose vaginal): decreased
intravesical volume at micturition (no micturition reflex up to this volume; cystometry stopped) ([4]; high dose vaginal, before approximately 20 mL): > 80 mL
micturition reflex ([4]; high dose vaginal, up to bladder volume of 80 mL): inhibited
Bladder Compliance ([4]; low dose vaginal): decrease
intravesical pressure during cystometry (at micturition) ([4]; low dose vaginal, after administration (about 15 before), FIG. 4): about 8 cm H2O
pressure at which micturition occurred ([4]; low dose vaginal, after administration (about 16 before), FIG. 3): about 8 cm H2O
magnitude of the micturition reflex (micturition pressure) ([4]; low dose vaginal, after administration (about 22 before)): about 10 cm H2O
intravesical volume at micturition ([4]; low dose vaginal, after treatment, approximately the same as before): about 22 mL
contractile response to intra-arterial Ach ([5]; high dose vaginal, after 4 hours): not restored
contractile response to intra-arterial Ach ([5]; high dose vaginal, at 15 minutes): complete inhibition
contractile response to intra-arterial Ach ([5]; low dose vaginal, at 45 minutes): decreased response
intravesical pressure response to intra-arterial Ach ([5]; low dose vaginal, from 45 minutes for the remaining 2.25 hours): about 7 cm H2O
vascular response to Ach ([6]; high dose vaginal): no effect
vascular response to Ach ([6]; low dose vaginal): no effect
bladder volume at micturition ([7]; all of the formulations (vaginal low, intermediate, high; oral)): significant increase
Bladder Compliance ([7]; all oxybutynin-treated groups): decreased
decrease of Bladder Compliance ([7]; high dose vaginal): 7.3 fold
micturition reflex ([7]; highest dose): virtually eliminated
decrease of Bladder Compliance ([7]; intermediate dose vaginal): 4.5 fold
decrease of Bladder Compliance ([7]; low dose vaginal): 3.3 fold
intravesical pressure immediately prior to micturition ([7]; oral (0.5 g in 3 mL saline)): significantly reduced
inhibitory effects on the micturition reflex, oral compared with the vaginal route ([7]; oral preparation vs intermediate dose vaginal): significantly greater inhibitory effects
effect on Bladder Compliance and bladder capacity, oral compared with the vaginal route ([7]; oral preparation vs intermediate dose vaginal (equal effects on Ach stimulated contraction)): smaller effect
micturition pressure ([7]; oral): significantly reduced
intravesical pressure immediately prior to micturition ([7]; vaginal high dose (1.5 g in 3 mL gel)): significantly reduced
micturition pressure ([7]; vaginal high dose): significantly reduced
intravesical pressure immediately prior to micturition ([7]; vaginal intermediate dose (0.5 g in 3 mL gel)): significantly reduced
micturition pressure ([7]; vaginal intermediate dose): not significantly affected
intravesical pressure immediately prior to micturition ([7]; vaginal low dose (0.15 g in 3 mL gel)): no significant effect
micturition pressure ([7]; vaginal low dose): not significantly affected
response to Ach compared to the control response ([8]; all preparations of oxybutynin): statistically significant decrease
onset of action ([8]; high dose vaginal): very fast
response to Ach ([8]; high dose vaginal, at 30 minutes, remained active throughout the 4 hour study): completely inhibited
response to acetylcholine ([8]; highest dose): completely eliminated
response to Ach ([8]; intermediate vaginal dose, reached over 90 minutes, remaining for the rest of the experiment): approximately 40 % of control
response to Ach ([8]; low vaginal dose, reached over 90 minutes, remaining for the rest of the experiment): approximately 40 % of control
response to Ach ([8]; oral, reached over 90 minutes, remaining for the rest of the experiment): approximately 40 % of control
vascular response to Ach ([9]; any dose, vaginally delivered, entire 4 hour period): no effect
effects on the cardiovascular system ([9]; highest dose): only minor effects
blood pressure response to Ach ([9]; oral): inhibitory effects
side effects [10, 15]: did not experience any noticeable side effects
urgency symptoms [10, 15]: improved remarkably
improvement of symptoms [10, 16]: remarkable improvement
side effects [10, 16]: no significant side effects
control of symptoms of urgency incontinence [10, 17]: remained effective
side effects [10, 17]: did not suffer from any side effects
improvement of urinary frequency, urgency and nocturia ([10]; vaginal 5 mg once daily at bed time): significant improvement
side effects ([11]; intravesical administration (Brendler)): no side effects were observed
patients who reported improvement and became totally continent ([11]; intravesical administration, eleven patients with persistent urge incontinence (Brendler)): Ten out of eleven
effectiveness in urinary incontinence [11, 18]: effective
side effects [11, 18]: did not experience side effects
systemic levels of oxybutynin [12]: effective at reducing the systemic levels

CCN(CC)CC#CCOC(=O)C(O)(c1ccccc1)C1CCCCC1 (stereo not drawn) [free base form, oxybutynin]
response to Ach ([5]; high dose of the free base form): no effect

Cc1ccc(O)c([C@H](CCN(C(C)C)C(C)C)c2ccccc2)c1 [DETROL®, tolterodine tartrate]
improvement of urgency incontinence ([10]; 2 mg orally twice a day): slight improvement
